Reference: patent US10208007B2, “Use of strigolactones and strigolactone analogs for treating proliferative conditions” (The State of Israel, Ministry of Agriculture & Rural …, priority 2011, dated 2019)
“Also recorded” adds a separate entry of the source.

Experiments:
Saccharomyces cerevisiae = experiment: Yeast cell culture growth (OD); assay type: cell-based
Description: Saccharomyces cerevisiae and Candida oleophila yeast cells were grown overnight in a reach nutrient media at 28° C., at 150 rpm. Following, they were diluted to 0.4 OD in low nutrient media (Lily) and were divided into 96 wells. The cells were treated with GR-24 or ST-362, at the indicated concentrations. Cell culture growth was monitored every hour for 17 hours, at 28° C., with gentle shake before each OD read. OD was determined using fluorometer. Statistical differences between curves were analyzed using compareGrowthCurves function from the Statistical Modeling package, statmod (http://bioinf.wehi.edu.au/software/compareCurves/), significance was determined once P≤0.05.

MDA-MB-231 = experiment: XTT viability after timed exposure and strigolactone removal; assay type: cell-based, human; settings: 5 and 10 ppm, XTT at 24 hours
Description: As further detailed herein below in the Experimental section, strigolactones and strigolactone analogs inhibit growth through a G2-phase arrest and cause apoptosis at higher concentrations wherein the GR-24 treatment causes an increase in the percentage of MCF-7 and MDA-MB-231 cells in G2-phase. Cells were treated with strigolactone analogs to determine whether or not they alter cell cycle progression in the same way. Dose dependant increases in the percentage of cells in G2 phase were observed. […] After a total of 24 hours, an XTT assay was carried out.

HCT116 cells [1] = experiment: FACS analysis of phospho-Ser10 Histone-H3; assay type: cell-based, human; settings: 2.7% in vehicle controls
Description: Adherent cells were trypsinyzed, washed twice with PBS and filtered through a […] cell sieve. DNA content was assessed by flow cytometry. Cells were seeded at densities of 1.5×10^5 cells (MDA-MB-231, MDA-MB-436), or 4×10^5 cells (MCF-7 and MCF10A), or 2×10^5 cells (SW480, HT-29), or 5×10^5 cells (HCT116), per well in DMEM with 10% FBS in 6-well plate culture dishes. […] After 48 hours, cells were washed twice with PBS (pH 7.4), centrifuged at 360 g for 10 minutes at 4° C., and fixed in chilled ethanol (70%; v/v in PBS) with gentle vortex mixing. To determine their DNA contents, the cells were stained with 40 μg/ml propidium iodide (hereinafter PI) and analyzed using a FACSCalibur flow cytometer and CellQuest analysis software (Becton Dickinson, San Jose, Calif.). Where phosphoHistone-H3 staining was carried out, cells were incubated with polyclonal antibody against phosphoHistone H3 and then with secondary Goat anti-rabbit IgG-conjugated to FITC prior to PI staining.
Chromosome condensation at mitosis is accompanied by phosphorylation of histone H3. Accordingly, in order to determine if cells were arresting at G2 or M phase, HCT116 cells were analyzed for pS10 Histone H3 following strigolactone analogs exposure. […] To further quantify whether the growth inhibition observed in-vitro following strigolactone treatment was due in part to apoptosis, HCT116 cells were dual stained with Annexin V and PI (Prodidium Iodide). Annexin V staining indicate the inversion of the inner leaflet of the plasma membrane an early event of apoptosis. Late apoptosis is characterized by loss of membrane integrity and cells become permeable to PI. […] Cells were incubated for 48 hours and then co-stained with annexin-V and PI (FIG. 12F). Following treatment with 10 ppm and 15 ppm MEB-55, the percentage of late apoptotic cell increased from 3.6% to 62% and 85% respectively (FIG. 12F, lower panel). […] Dual Annexin V/PI staining analysis was also carried out on two other colon cancer cell lines, (SW480, HT29) following strigolactone treatment. Increased apoptosis was also observed in these lines following MEB-55 treatment in a dose dependent manner (FIG. 12D).

Cyclin B1 mRNA = experiment: Quantitative Real-time PCR of Cyclin B1 mRNA; assay type: cell-based, human
Description: Primers were designed using PrimerQuest software (Integrated DNA Technologies). RNA was extracted using Trizol (Invitrogen, Carlsbad, Calif., USA) using the manufacturer's protocol. 1 μg RNA was reverse-transcribed in a total volume of 20 μl using the Superscript First strand cDNA synthesis kit (Invitrogen). PCR was performed in triplicate using an ABI-Prism 7900 instrument (Applied Biosystems, Foster City, Calif.) and SYBR Green I detection (Applied Biosystems) according to the manufacturer's protocol. The expression of each target gene was normalized to the expression of GAPDH RNA and is presented as the ratio of the target gene to GAPDH RNA, expressed as 2-ΔCt, where Ct is the threshold cycle and ΔCt=Ct Target−Ct GAPDH.
No change in cyclin B1 levels were detected at earlier time points. The dephosphorylation of Cdk1 (Cdc2) at Thr14 is a critical event for its activation, permitting mitotic entry. Cdk1 protein levels remained unaltered, as did pT14Cdc2 levels (FIG. 17B). Quantitative Real-time PCR was carried out to determine whether Cyclin B1 inhibition was partially at the transcriptional level.

U20S cells = experiment: XTT viability after timed exposure and strigolactone removal; settings: Homo sapiens
Description: (§1) At each time point the strigolactone analog was removed and the media was replaced with fresh growth media without strigolactone analog. […] In addition, viability of MDA-MB-231 cells was assessed after 24 hours by using an XTT assay (FIG. 9B). […] After 2, 4 or 24 hours the media was removed, cells were washed and media was replaced with growth media minus strigolactone analog.

HCT116 cells [2] = experiment: as above; settings: Homo sapiens
Description: as §1

In the case of `CC1=CC(O/C=C2/C(=O)c3c(c4cc(-c5scc6c5OCCO6)ccc4n3C)C2C)OC1=O` (stereo not shown) [ST-362, (2E)-2-[(2,5-dihydro-4-methyl-5-oxofuran-2-yloxy)methylene]-1,2-dihydro-7-(2,3-dihydrothieno[3,4-b][1,4]dioxin-7-yl)-1,4-dimethyl-cyclopenta[b]indole-3-(4H)-one], the “Concentrations giving a significant reduction in cell culture growth” value (Saccharomyces cerevisiae; apparent from the time of application) is reported as no less than 0.1 µM, the Cell viability (MDA-MB-231; 2 hours exposure) is reported as “No significant changes; also recorded: No changes in cell viability” and the Cell viability (MDA-MB-231; 4 hours exposure, p<0.01) is reported as “significant decrease in viability”.
`CC1=CC(O/C=C2\Cc3c(n(C)c4cc(-c5cccs5)ccc34)C2=O)OC1=O` (racemic) [MEB-55, (±) 2E-4-methyl-2-(4-methyl-5-oxo-2,5-dihydrofuran-2-yloxymethylene)-6-thiophen-2-yl-1,4-dihydro-2H-cyclopenta[b]indol-3-one] was tested, and the “Percentage of cells staining positive for pHistone H3” value (“Percentage of cells staining positive” below) (HCT116 cells [1]; 5 ppm) was 1.45%, the “Percentage of cells staining positive” value (HCT116 cells [1]; 7.5 ppm) was 0.9% and the “Cyclin B1 mRNA compared to vehicle controls” value (Cyclin B1 mRNA; A549, 10 ppm) was “two fold decrease”. The “Cyclin B1 mRNA compared to vehicle controls” value (Cyclin B1 mRNA; HCT116, 10 ppm) was “two fold decrease”, the Cell viability (MDA-MB-231; 2 hours exposure) was “No significant changes; also recorded: No changes in cell viability” and the Cell viability (MDA-MB-231; 4 hours exposure, p<0.01) was “significant decrease in viability”. It also gave a viability at 10 ppm (U20S cells; 1 h) of 52%, a viability at 20 ppm (U20S cells; 1 h) of 40% and a viability at 10 ppm (U20S cells; 4 h) of 0%. For the same molecule, the viability at 20 ppm (U20S cells; 4 h) was 0%, the viability at 10 ppm (HCT116 cells [2]; HCT-116, 1 h) was 75% and the viability at 20 ppm (HCT116 cells [2]; HCT-116, 1 h) was 68%. The viability at 10 ppm (HCT116 cells [2]; HCT-116, 4 h) was 18% and the viability at 20 ppm (HCT116 cells [2]; HCT-116, 4 h) was 0%.
`CC1=CC(O/C=C2/C(=O)c3c(c4cc(-c5cccs5)ccc4n3C)C2C)OC1=O` (stereo not shown) [ST-357, (2E)-1,4-dimethyl-2-((4-methyl-5-oxo-2,5-dihydrofuran-2-yloxy)methylene)-7-(thiophen-2-yl)-1,2-dihydrocyclopenta[b]indol-3(4H)-one] was tested, and the “Percentage of cells staining positive” value (HCT116 cells [1]; 5 ppm) was 0.7%, the “Percentage of cells staining positive” value (HCT116 cells [1]; 7.5 ppm) was 0.3% and the viability at 10 ppm (U20S cells; 1 h) was 80%. The viability at 20 ppm (U20S cells; 1 h) was 77%, the viability at 10 ppm (U20S cells; 4 h) was 62% and the viability at 20 ppm (U20S cells; 4 h) was 10%. For the same molecule, the viability at 10 ppm (HCT116 cells [2]; HCT-116, 1 h) was 75%, the viability at 20 ppm (HCT116 cells [2]; HCT-116, 1 h) was 63% and the viability at 20 ppm (HCT116 cells [2]; HCT-116, 4 h) was 50%. The viability at 20 ppm (HCT116 cells [2]; HCT-116, 8 h) was 10%.
With `CC1=C[C@H](O/C=C2/C(=O)O[C@@H]3c4ccccc4C[C@H]23)OC1=O` (relative stereo) [GR-24, (3aR*,8bS*,E)-3-(((R*)-4-methyl-5-oxo-2,5-dihydrofuran-2-yloxy)methylene)-3,3a,4,8b-tetrahydro-2H-indeno[1,2-b]furan-2-one] the Cell culture growth (Saccharomyces cerevisiae; apparent 8 hours after application, 17 hours monitoring) was “significant reduction in cell culture growth”.
